Each block holds one compound with its values, some of them ahead of it.
Columns and labels:
Type in all cases: cell-based
Settings in all cases: alone or as component of the blend, 20 h at 36° C. in TSB
[1] = test system: Pseudomonas aeruginosa (strain ATCC 27853); test: Broth dilution MIC and synergy index against Pseudomonas aeruginosa
Experimental: (§1) Solutions containing carvacrol, thymol and salicylaldehyde were assessed for antimicrobial activity against three different reference microorganisms: • Gram negative bacteria—Escherichia coli (strain ATCC 8739) • Gram negative bacteria—Pseudomonas aeruginosa (strain ATCC 27853) • Gram positive bacteria—Staphylococcus aureus (strain ATCC6538)
(§2) The microorganisms were collected from the “Colección Española de Cultivos Tipo” (CECT), University of Valencia. They were collected in the form of a lyophilized inoculum and were refreshed by regular seeding in solid culture media. After the grown, the stock culture was kept under refrigeration. Prior to the analysis, the microorganisms were recultured 3-4 times by diluting colonies in tryptic soy broth (TSB) and incubating overnight at 36° C.
(§3) The day prior to the assay, the colonies are touched with a loop and transferred to tryptic soy broth (TBS) (100 mL). The broth is incubated at 36° C. overnight until the growth reaches a turbidity equal or similar to 10^9 colony-forming units per millilitre (CFU/mL). The culture is adjusted to give a turbidity equivalent to 0.18 absorbance units in order to confirm the inoculum is in the exponential growth phase (around 10^5-10^6 CFU/mL). The measurement is carried out by using a UV-VIS spectrometer, operating at 550 nm and a 1-cm path cell. […]
(§4) The antimicrobial efficacy of Carvacrol, Thymol and Salycylaldehyde and their blends, was determined as Minimum Inhibitory Concentration (MIC). MIC is recorded as the lowest product concentration that inhibits growth. […]
(§5) Where: • CM is the MIC of the substance n when used in a blend, that is, in combination with the rest of antimicrobial compounds analysed. • CS is the MIC of the substance when used alone.
(§6) SI below 1 indicates synergy effect and p-value has been calculated as the probability of obtaining the observed sample results (or a more extreme result) when the null hypothesis is actually true. […]

[2] = test system: Escherichia coli (strain ATCC 8739); test: Broth dilution MIC and synergy index against Escherichia coli
Experimental: as §1, §2, §3, §4, §5, §6

[3] = test system: Staphylococcus aureus (strain ATCC6538); test: Broth dilution MIC and synergy index against Staphylococcus aureus
Experimental: as §1, §2, §3, §4, §5, §6

[4] = amount of salicylaldehyde at the MIC

Structure (SMILES): Cc1ccc(C(C)C)cc1O [Carvacrol, carvacrol]
- MIC Pseudomonas aeruginosa, Carvacrol ([1]; amount of carvacrol at the MIC): 7.5 mg
- MIC Escherichia coli, Carvacrol ([2]; amount of carvacrol at the MIC): 3 mg
- MIC Staphylococcus aureus, Carvacrol ([3]; amount of carvacrol at the MIC): 2.1 mg

- MIC Pseudomonas aeruginosa, Salicylaldehyde [1, 4]: 2.25 mg
- MIC Escherichia coli, Salicylaldehyde [2, 4]: 4.75 mg
- MIC Staphylococcus aureus, Salicylaldehyde [3, 4]: 4.75 mg
Structure (SMILES): O=Cc1ccccc1O [Salicylaldehyde, salicylaldehyde]

- MIC Pseudomonas aeruginosa, Thymol ([1]; amount of thymol at the MIC): 4.5 mg
- MIC Escherichia coli, Thymol ([2]; amount of thymol at the MIC): 2 mg
- MIC Staphylococcus aureus, Thymol ([3]; amount of thymol at the MIC): 1.1 mg
Structure (SMILES): Cc1ccc(C(C)C)c(O)c1 [Thymol, thymol]
